US20030104603A1, “Protein” (priority 2001, published 2003)

System: mouse EST cluster TC20248 (CitE homolog gene) in white adipose tissue
Assay: Affymetrix GeneChip analysis of white adipose tissue mRNA from β3-agonist treated mice
Assay type: in vivo
Conditions: male C57B1/6J mice, CL 316,243 1 mg/kg injected every 12 h, 2 doses, white adipose tissue collected at 24 h, versus saline control, Mu19K GeneChips
Description: Male C57B1/6J mice, 12 weeks old, were housed under conditions of ambient temperature and free access to water and chow. Either the β3-selective agonist CL 316,243 (1mg/kg) or saline was injected every 12h with 2 doses during a total period of 24 hours. The animals were decapitated 24 h after the experiment was started, and the white adipose tissue was quickly collected and immediately frozen into liquid nitrogen.
PolyA^+ mRNAs were extracted from white adipose tissue from control and β3-agonist treated mice respectively. They were reverse transcribed using a T7-tagged oligo-dT primer and double-stranded cDNAs were generated. These cDNAs were then amplified and labeled using In vitro transcription (IVT) with T7 RNA polymerase and biotinylated nucleotides. The populations of cRNAs obtained after IVT were purified and fragmented by heat to produce a distribution of RNA fragment sizes from approximately 35 to 200 bases. […] The cartridges were scanned using a Hewlett-Packard confocal scanner and the images were analyzed with the GeneChip 3.1 software (Affymetrix). The identity of the genes represented on the Affymetrix GeneChips was assessed by performing searches using BLAST (Altschul et al., J. Molec. Biol., 1990, 215, 403-410), which is incorporated herein by reference in its entirety) on available protein sequence databanks. […]

C[C@H](Cc1ccc2c(c1)OC(C(=O)[O-])(C(=O)[O-])O2)NC[C@H](O)c1cccc(Cl)c1.[Na+].[Na+] [CL 316,243]
transcriptional change of the CitE homolog gene (TIGR Mouse Gene Index TC20248): down-regulated | transcriptional change of the CitE homolog gene (TIGR Mouse Gene Index TC20248) (listed as β3-agonist): downregulated by a factor of two
